The source of these data is US8603818B1, “TGF-beta receptor inhibitors to enhance direct reprogramming” (The General Hospital Corporation, priority 2008, dated 2013).

Read-outs that look alike come from different tables or passages of the source.

The subject of experiment [1] is four-factor infected MEFs. Nature of the experiment: iPSC induction in four-factor infected MEFs (dox-inducible lentiviruses). Type of experiment: cell-based, mice. The following applies: for efficiency of iPSC formation / iPSC colonies per well: 1 ng/mL ligand during dox induction, dox 12d, counts day 16. How it is done:
2A. Alkaline phosphatase stain for primary iPSC colonies, treated with or without the Alk5 inhibitor (1 μM) during dox induction. MEFs were infected with four factors and colonies were stained on day 12 (8d+dox/4d−dox).
2B. Kinetics of reprogramming in MEFs infected with four factors.
2D. Dose-response curve for the Alk5 inhibitor in MEFs induced with four factors.
2E Effect of TGF-β ligands in reprogramming, using four-factor infected MEFs (dox for 12d; counts on day 16 based on Oct4 immunostaining). TGF-β concentrations: low, 1 ng/mL; medium, 2.5 ng/mL; high, 5 ng/mL.
2F. Timing of Alk5 inhibitor action. The Alk5 inhibitor (1 μM) was applied in 4-day time intervals. Control=no inhibitor, Full-time=inhibitor added days 1-16.
2G. […] Inhibitor (1 μM) was applied for either 3 days before (−3 to 0d) or during the first 3 days of dox induction (0 to +3d), or both (−3d to +3d). Control=no inhibitor.
To induce reprogramming, MEFs were infected with a reverse tetracycline transactivator (rtTA) transgene with doxycycline-inducible lentiviruses encoding the four reprogramming factors as previously described (Stadtfeld, M., et al., (2008) Cell Stem Cell 2, 230-240).
It was next sought to establish a dose-response curve for the Alk5 inhibitor. Using four-factor infected MEFs, concentrations of the Alk5 inhibitor were tested over a 1000-fold range, from 4 nM to 4 μM. […] To verify that manipulation of TGF-β signaling affects reprogramming, it was investigated whether pathway activation would inhibit iPSC formation. Using four-factor infected MEFs, increasing concentrations of TGF-β1 or TGF-β2 were applied during the time of dox induction.
To gain further insight into the mode of action of the Alk5 inhibitor, the temporal window during which the inhibitor elicited its strongest effect was examined. In four-factor infected MEFs, the inhibitor was applied in 4-day intervals from days 0-16 of reprogramming. […] To test this, the inhibitor was applied in 3-day time intervals: before dox administration (days −3 to 0) to test for a priming effect, during the first 3 days of reprogramming (days 0 to +3) as a control for the efficiency increase, during both intervals (days−3 to +3) to test for a synergistic effect, and a no-inhibitor control as a baseline measure (FIG. 1G).

Experiment [2] concerns MEFs infected with OSK or OSMK. The following applies: inhibitor 1 μM. The text has this: 7A. […] Cells were counted at each timepoint noted, and values represent the fractional change in cell number: (fraction of starting cell number at timepoint b−fraction of starting cell number at timepoint a)/time between b and a.
In support of this, it has been shown that activation of TGF-β signaling can promote an epithelial-to-mesenchymal transition (Valcourt, U., et al., (2005) Mol Biol Cell 16, 1987-2002); fibroblast reprogramming involves a mesenchymal-to-epithelial conversion, which may be enhanced by inhibition of the TGF-β signaling pathway.

A further experiment has as its system secondary MEF lines. As to conditions: inhibitor 2 μM, colonies day 16.
Experiment [3] has as its system Secondary cells carrying the polycistronic STEMCCA construct. The following applies: dox 2 days; inhibitor 1 μM. On the procedure:
7B. Annexin V and propidium iodide (PI) staining to quantify apoptosis during iPSC induction. […] Annexin V-positive and PI-negative cells represent the fraction of living cells in the process of apoptosis.
Annexin V and propidium iodide staining was done using the Annexin V-FITC kit (BD Pharmingen, 556547) according to manufacturer directions. Cells were analyzed by flow cytometry on a FACSCalibur (BD).

The test system of the next experiment is human fibroblast. The following applies: data not shown.
A further experiment has as its system secondary STEMCCA MEFs. Nature of the experiment: Dose-response of iPSC induction in secondary STEMCCA MEFs. Type of experiment: cell-based, mice. The text has this:
3B. Dose-response curve for the Alk5 inhibitor in secondary STEMCCA MEFs.
Secondary STEMCCA MEFs were used to establish another dose-response curve for the Alk5 inhibitor.

For the next experiment, the system named is primary MEFs. The experiment is described as follows: Replacement of reprogramming factors in primary MEFs infected with factor combinations (OSK, OMK, OK).
For another experiment, the system named is Sox2-GFP fibroblasts. From the text:
1A. Effect of Alk5 inhibitor treatment on the number of Sox2-GFP+iPS colonies
Fibroblasts cultures were established from mice expressing green-fluorescent protein (GFP) from the genomic locus of the pluripotency gene Sox2. Sox2-GFP fibroblasts were then infected with viruses expressing the reprogramming factors c-Myc, Klf4, Oct4 and Sox2 in the presence and absence of a chemical inhibitor highly specific for the TGF-beta receptor Alk5 (ALK5 inhibitor H). GFP+colonies with embryonic stem (ES) cell morphology were scored 20 days after infection.

For experiment [4], the system named is embryonic stem cells+MEFs. Nature of the experiment: Reprogramming by cell fusion. As to conditions: data not shown.
Experiment [5] has as its system Sox2, cMyc, Nanog expression in infected MEFs. How it is done: MEFs were infected with various factor combinations, then treated with dox for three days in the presence or absence of […] Alk5 inhibitor (1 μM). qPCR analysis was done using primers that specifically detect endogenous Sox2 or cMyc, as well as total Nanog. Experiments were done with both biological and technical triplicates, and a Student's T-test (paired, two-tailed) was used to assess statistical significance.
RNA was extracted by using a Qiagen RNeasy kit (74104), then converted to cDNA with the Superscript III First-Strand synthesis system (Invitrogen) using oligo-dT primers. qRT-PCRs were carried out using Brilliant II SYBR Green mix (Stratagene) and run on a Stratagene MXPro400. Reactions were carried out in duplicate with -RT controls, and data were analyzed using the delta-delta Ct method.

The mark [6] stands for this setting: 2.5 ng/mL ligand during dox induction.
Where [7] appears, read: 5 ng/mL ligand during dox induction.

Description for primary MEFs: Replacement of the role of cMyc with the Alk5 inhibitor (1 μM). MEFs were infected with either three (OSK) or four (OSMK) factors. Dox was withdrawn on day 8 and colonies were quantified on day 12 based on morphology and dox independence.
Replacement of the role of Sox2 with the Alk5 inhibitor (1 μM). MEFs were infected with three (OMK) or two (OK) factors and induced with dox for 16 days, then split on day 18 into media without dox. Image depicts alkaline phosphatase stain of passage 1 cultures.
Experiments were designed to investigate whether the Alk5 inhibitor could function to replace exogenous expression of any of the reprogramming factors. To this end, primary MEFs were infected with different combinations of the four factors in the presence or absence of inhibitor (FIG. 4) and then scored for iPSC formation.
For all of the other replacement conditions, dox was withdrawn on day 16, which would provide sufficient time for reprogramming. […] Nonetheless, colonies were picked from both conditions and tested for their potential to form dox-independent lines.
Description for secondary MEF lines: Kinetics of reprogramming in two secondary MEF lines. Dox was applied for either 4, 6, 8, or 10 days, with or without the Alk5 inhibitor (2 μM). Colonies were quantified on day 16 based on morphology and dox independence.
To this end, we employed a “secondary system” consisting of MEFs isolated from iPSC-derived chimeras.
In two different secondary MEF lines, the effect of Alk5 inhibition on both the efficiency and kinetics of reprogramming was tested. In this experiment, dox was applied for 4, 6, 8, or 10 days, either in the presence or absence of the Alk5 inhibitor, then quantified iPSC colony number on day 16.

Regarding `Cc1cccc(-c2n[nH]cc2-c2ccc3ncccc3n2)n1` [Alk5 inhibitor, 2-(3-(6-Methylpyridin-2-yl)-1H-pyrazol-4-yl)-1,5 napththyridine], the “effect of inhibitor use during reprogramming on the resulting iPSCs (pluripotency markers, teratoma)” value in experiment [1] (4-day iPSCs) is reported as “no adverse effect”. For the same molecule, the “frequency of iPSC colonies” value in experiment [1] (four days of dox, inhibitor 2 μM, counted day 16) turned out to be 0.0013%. Further, the “enhancement in number of iPSC colonies” value in [1] (highest dose tested (range 4 nM to 4 μM), dox and inhibitor 8 days, Oct4 immunostaining day 12) came out at 30 fold. Moreover, the “reprogramming efficiency by timing of inhibitor” value in experiment [1] (inhibitor 1 μM applied after dox withdrawal (day 12)) is recorded as “no effect”; in experiment [1] (inhibitor 1 μM applied during 5-8 day interval), “strong enhancement”; in experiment [1] (inhibitor 1 μM applied during first four days, dox withdrawn day 12, counts day 16), “largest increase in efficiency”. Further, in [1] (inhibitor 1 μM during dox induction, stained day 12 (8d+dox/4d−dox)), the “number of iPSC colonies (alkaline phosphatase stain)” value was “striking increase”. Also, in experiment [1] (inhibitor 1 μM during first 3 days of factor expression (0 to +3d)), the enhancement in efficiency was −5 fold. In addition, the increase in efficiency result in [1] (inhibitor 1 μM in −3d/+3d group) is given as “comparable to the 0 to +3d group”. Besides, the “reprogramming efficiency, priming test” value in experiment [1] (inhibitor 1 μM prior to factor expression (days 3 to 0), dox withdrawn day 8, counts day 12) is reported as “slight reduction in efficiency”. For the same molecule, the iPSC formation result in experiment [1] (three days of dox, inhibitor 2 μM, counted day 16) is listed as “not obtained”. For the same molecule, the proliferation during reprogramming result in [2] (around day 6) is recorded as “decrease in proliferation”. Further, in [2] (day 2), the “cell number early in reprogramming” value was “mitigated the decrease in cell number”. The increase in reprogramming in the experiment with secondary MEF lines (one secondary MEF line) amounted to 2 fold; in the experiment on secondary MEF lines (the other secondary MEF line), 30 fold. Besides, in experiment [3], the “apoptosis, Annexin V staining, inhibitor-treated versus untreated cells” value is “negligible difference”. Further, the “increase in the efficiency of human fibroblast reprogramming” value in the experiment with human fibroblast was “not observed”. Besides, the “increase in efficiency at maximum” value in the experiment with secondary STEMCCA MEFs (at 0.5 μM) is reported as roughly 60 fold. In addition, the “efficiency at higher doses” value in the experiment on secondary STEMCCA MEFs (doses above the maximum) was “began to decline”. The “concentration giving maximum efficiency” value in the experiment with secondary STEMCCA MEFs (dox and inhibitor 8 days, Oct4 immunostaining day 12) came out at 0.5 µM. The “colony formation in the absence of both cMyc and Sox2” value with primary MEFs (OK + inhibitor 1 μM) is “could not be obtained”. For the same molecule, the “dox-independent colonies after passage without dox” value in the experiment on primary MEFs (OMK+inhibitor 1 μM) was “gave rise to dox-independent colonies”. The “colony formation in cMyc replacement condition” value with primary MEFs (OSK+inhibitor, day 8) is reported as “colonies were observed”. In addition, the “picked colonies forming dox-independent iPSC lines” value with primary MEFs (Sox2 replacement condition (OMK), inhibitor-treated culture) is listed as 3/22. In addition, the “colonies morphologically identical to iPSCs” value in the experiment on primary MEFs (Sox2 replacement condition (OMK), inhibitor-treated culture, dox 16 days) was determined as 50 colonies. Moreover, the “efficiency of OSK+inhibitor relative to four factors alone (OSK+M)” value in the experiment with primary MEFs (inhibitor 1 μM, dox withdrawn day 8, colonies day 12) worked out at 2.5 fold. For the same molecule, the “fold more GFP+ colonies with ES cell morphology” value in the experiment with Sox2-GFP fibroblasts (four factors, scored 20 days after infection, versus absence of inhibitor) is on record as 5-10 fold. In addition, the “onset of GFP expression in colonies” value with Sox2-GFP fibroblasts (versus colonies formed in the absence of the chemical) is “earlier”. For the same molecule, the “effect on reprogramming by cell fusion” value in experiment [4] was “negative result”. In experiment [5] (cells infected with OSK, dox three days, inhibitor 1 μM), the “induction of cMyc” value came to 1.3 fold. Moreover, the “change in expression of other genes (Sox2: OMK, OSMK; cMyc: OSMK; Nanog: OMK, OSK, OSMK)” value in experiment [5] (dox three days, inhibitor 1 μM) was “No other genes showed a statistically significant change”. Besides, the “induction of Sox2 or cMyc” value in [5] (other cells (OMK or OSMK)) was “no significant induction”.
“TGF-β1: TGF-β ligand obtained from Peprotech”: in [1], the “efficiency of iPSC formation” value is roughly 0.0013% and the “iPSC colonies per well” value is “one”. In [1] (setting [6]), the iPSC formation result was “undetectable”. Moreover, the iPSC formation entry in [1] (setting [7]) is given as “undetectable”.

B1: TGF-β2: TGF-β ligand obtained from Peprotech (protein, UniProt P61812 303-414, looked up)
Transforming growth factor …: ALDAAYCFRNVQDNCCLRPLYIDFKRDLGWKWIHEPKGYNANFCAGACPYLWSSDTQHSRVLSLYNTINPEASASPCCVSQDLEPLTILYYIGKTPKIEQLSNMIVKSCKCS
On to B1, for which, in experiment [1], the “efficiency of iPSC formation” value was roughly 0.0013% and the “iPSC colonies per well” value is given as “one”. The iPSC formation result in [1] (setting [6]) is given as “undetectable”. Also, the iPSC formation result in experiment [1] (setting [7]) is listed as “undetectable”.
